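Where inhibition never reached the appropriate level, the endpoint shown equals the highest concentration tested. Otherwise, values were interpolated linearly from a five-concentration, 48-hour dose response in 96-well plates. Abbreviation: GI50, concentration required for 50% inhibition of growth.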 The source made the active and inactive calls. Rule as the data show it: active = GI50 up to about 1.1 µM and inactive = higher.
Legend:
Assay in all cases: inhibition of tumour cell growth, NCI panel, 48 h
786-0 = system: 786-0
A498 = system: A498
A549 = system: A549
ACHN = system: ACHN
BT-549 = system: BT-549
CAKI-1 = system: CAKI-1
CCRF-CEM = system: CCRF-CEM
COLO 205 = system: COLO 205
DU-145 = system: DU-145
EKVX = system: EKVX
HCC 2998 = system: HCC 2998
HCT-116 = system: HCT-116
HCT-15 = system: HCT-15
HL-60 = system: HL-60
HOP-62 = system: HOP-62
HOP-92 = system: HOP-92
HT-29 = system: HT-29
Hs-578T = system: Hs-578T
IGROV-1 = system: IGROV-1
K562 = system: K562
KM12 = system: KM12
LOX IMVI = system: LOX IMVI
M14 = system: M14
MCF7 = system: MCF7
MDA-MB-231 = system: MDA-MB-231
MDA-MB-435 = system: MDA-MB-435
MDA-N = system: MDA-N
MOLT-4 = system: MOLT-4
Malme-3M = system: Malme-3M
NCI-H226 = system: NCI-H226
NCI-H23 = system: NCI-H23
NCI-H522 = system: NCI-H522
NCI/ADR-RES = system: NCI/ADR-RES
OVCAR-3 = system: OVCAR-3
OVCAR-4 = system: OVCAR-4
OVCAR-5 = system: OVCAR-5
OVCAR-8 = system: OVCAR-8
PC-3 = system: PC-3
RPMI-8226 = system: RPMI-8226
RXF 393 = system: RXF 393
SF-268 = system: SF-268
SF-295 = system: SF-295
SF-539 = system: SF-539
SK-MEL-28 = system: SK-MEL-28
SK-MEL-2 = system: SK-MEL-2
SK-MEL-5 = system: SK-MEL-5
SK-OV-3 = system: SK-OV-3
SN12C = system: SN12C
SNB-19 = system: SNB-19
SNB-75 = system: SNB-75
SW-620 = system: SW-620
T47D = system: T47D
TK-10 = system: TK-10
U-251 = system: U-251
UACC-257 = system: UACC-257
UACC-62 = system: UACC-62
UO-31 = system: UO-31
NCI-H460 = system: NCI-H460
SR = system: SR

Structure (SMILES): CC(C)=CCc1c(O)c(CC2=C(O)C(CC=C(C)C)(C(=O)C(C)C)C(O)=C(C)C2=O)c(O)c(C(=O)C(C)C)c1O (centres undefined)
- GI50 (786-0): 10.7 µM (inactive)
- GI50 (A498): 9.57 µM (inactive)
- GI50 (A549): 14.1 µM (inactive)
- GI50 (ACHN): 11.8 µM (inactive)
- GI50 (BT-549): 11.6 µM (inactive)
- GI50 (CAKI-1): 17.5 µM (inactive)
- GI50 (CCRF-CEM): 5.78 µM (inactive)
- GI50 (COLO 205): 13 µM (inactive)
- GI50 (DU-145): 18.9 µM (inactive)
- GI50 (EKVX): 17.7 µM (inactive)
- GI50 (HCC 2998): 7.8 µM (inactive)
- GI50 (HCT-116): 3.05 µM (inactive)
- GI50 (HCT-15): 11.7 µM
- GI50 (HL-60): 39 µM (inactive)
- GI50 (HOP-62): 11.3 µM (inactive)
- GI50 (HOP-92): 5.07 µM (inactive)
- GI50 (HT-29): 3.88 µM (inactive)
- GI50 (Hs-578T): 9.89 µM (inactive)
- GI50 (IGROV-1): 10.9 µM (inactive)
- GI50 (K562): 8.61 µM (inactive)
- GI50 (KM12): 7.53 µM (inactive)
- GI50 (LOX IMVI): 9.48 µM (inactive)
- GI50 (M14): 11.4 µM (inactive)
- GI50 (MCF7): 11.7 µM (inactive)
- GI50 (MDA-MB-231): 17 µM (inactive)
- GI50 (MDA-MB-435): 16.2 µM (inactive)
- GI50 (MDA-N): 14.3 µM (inactive)
- GI50 (MOLT-4): 2.31 µM (inactive)
- GI50 (Malme-3M): 8.02 µM (inactive)
- GI50 (NCI-H226): 7.93 µM (inactive)
- GI50 (NCI-H23): 8.43 µM (inactive)
- GI50 (NCI-H522): 6.55 µM (inactive)
- GI50 (NCI/ADR-RES): 10.6 µM (inactive)
- GI50 (OVCAR-3): 12.2 µM (inactive)
- GI50 (OVCAR-4): 15.8 µM (inactive)
- GI50 (OVCAR-5): 11.9 µM (inactive)
- GI50 (OVCAR-8): 12 µM (inactive)
- GI50 (PC-3): 5.66 µM (inactive)
- GI50 (RPMI-8226): 6.46 µM (inactive)
- GI50 (RXF 393): 12.1 µM (inactive)
- GI50 (SF-268): 9.86 µM (inactive)
- GI50 (SF-295): 9.33 µM (inactive)
- GI50 (SF-539): 13.8 µM (inactive)
- GI50 (SK-MEL-28): 13.2 µM (inactive)
- GI50 (SK-MEL-2): 11.5 µM (inactive)
- GI50 (SK-MEL-5): 7.87 µM (inactive)
- GI50 (SK-OV-3): 18.8 µM (inactive)
- GI50 (SN12C): 18.8 µM (inactive)
- GI50 (SNB-19): 7.73 µM (inactive)
- GI50 (SNB-75): 13.6 µM (inactive)
- GI50 (SW-620): 24 µM (inactive)
- GI50 (T47D): 8.45 µM (inactive)
- GI50 (TK-10): 13.2 µM (inactive)
- GI50 (U-251): 12.4 µM (inactive)
- GI50 (UACC-257): 11.5 µM (inactive)
- GI50 (UACC-62): 7.98 µM (inactive)
- GI50 (UO-31): 7.59 µM (inactive)

Structure (SMILES): Cc1ccnn1CCc1ccc(Cl)cc1Cl
- GI50 (A549): 27.6 µM (inactive)
- GI50 (ACHN): 27.9 µM (inactive)
- GI50 (BT-549): 13.6 µM (inactive)
- GI50 (CAKI-1): 28.1 µM (inactive)
- GI50 (CCRF-CEM): 25.4 µM (inactive)
- GI50 (COLO 205): 35 µM (inactive)
- GI50 (DU-145): 37.4 µM (inactive)
- GI50 (EKVX): 2.31 µM (inactive)
- GI50 (HCT-116): 47.5 µM (inactive)
- GI50 (HCT-15): 36.5 µM
- GI50 (HL-60): 7.69 µM (inactive)
- GI50 (HOP-62): 15 µM (inactive)
- GI50 (HT-29): 36.8 µM (inactive)
- GI50 (Hs-578T): 22.9 µM (inactive)
- GI50 (IGROV-1): 29.6 µM (inactive)
- GI50 (K562): 29.1 µM (inactive)
- GI50 (KM12): 27 µM (inactive)
- GI50 (LOX IMVI): 33 µM (inactive)
- GI50 (M14): 24.4 µM (inactive)
- GI50 (MCF7): 31.9 µM (inactive)
- GI50 (MDA-MB-231): 29.3 µM (inactive)
- GI50 (MDA-MB-435): 38.2 µM (inactive)
- GI50 (MDA-N): 44.3 µM (inactive)
- GI50 (MOLT-4): 13.1 µM (inactive)
- GI50 (Malme-3M): 30.1 µM (inactive)
- GI50 (NCI-H23): 24.8 µM (inactive)
- GI50 (NCI-H460): 27.2 µM (inactive)
- GI50 (NCI/ADR-RES): 6.82 µM (inactive)
- GI50 (OVCAR-3): 20.5 µM (inactive)
- GI50 (OVCAR-4): 11.7 µM (inactive)
- GI50 (OVCAR-5): 32.4 µM (inactive)
- GI50 (OVCAR-8): 27.9 µM (inactive)
- GI50 (PC-3): 27 µM (inactive)
- GI50 (RPMI-8226): 8.73 µM (inactive)
- GI50 (RXF 393): 9.91 µM (inactive)
- GI50 (SF-268): 27 µM (inactive)
- GI50 (SF-295): 18 µM (inactive)
- GI50 (SF-539): 18.2 µM (inactive)
- GI50 (SK-MEL-28): 35.4 µM (inactive)
- GI50 (SK-MEL-5): 19 µM (inactive)
- GI50 (SK-OV-3): 65.9 µM (inactive)
- GI50 (SN12C): 11.8 µM (inactive)
- GI50 (SNB-19): 28.6 µM (inactive)
- GI50 (SNB-75): 14.5 µM (inactive)
- GI50 (SR): 21.9 µM (inactive)
- GI50 (SW-620): 54.8 µM (inactive)
- GI50 (T47D): 8.97 µM (inactive)
- GI50 (TK-10): 20.8 µM (inactive)
- GI50 (U-251): 29.1 µM (inactive)
- GI50 (UACC-257): 34.4 µM (inactive)
- GI50 (UACC-62): 8.73 µM (inactive)
- GI50 (UO-31): 4.63 µM (inactive)
